Target: HIV-1 protease (Human immunodeficiency virus type 1 group M subtype B, UniProt P04585)
Type: cell-based
Settings: Gal4/PR cell line induced by Dox, incubated with protease inhibitor
From the text: This type of cleavage was successfully monitored by a previously developed assay for HIV-1. The assay was developed in mammalian cells and relied on an engineered Gal4/protease fusion protein that travels to the nucleus and activates the GFP reporter gene when inhibited. The activation or lack thereof of the reporter GFP gene can be measured and quantified via flow cytometry.
In the absence of Dox, rtTA cannot bind to the Tet-Responsive Element (TRE) and consequently, there is no GFP expression from the reporter construct. In the presence of Dox, rtTA binds to TRE and induces GFP expression. […] In the presence of Dox, PR/Gal4 is expressed; however, its autocatalytic activity results in the separation of the Gal4 domains, resulting in turn in the lack of GFP expression. However, in the presence of protease inhibitor (PI), the PR/Gal4 fusion remains intact, resulting in the induction of GFP expression.
The plasmids include the rtTA, GFP reporter and Gal4 fusions. The Gal4 plasmids include Gal4 control, Gal4/PRm (mutant) and Gal4/PR.
In order to be able to easily discriminate between cleaved and non-cleaved events (or active and non-active protease), the assay relied on the classical Gal4/UAS system broadly used in gene expression experiments. […]

CC(C)(C)NC(=O)[C@@H]1CN(Cc2cccnc2)CCN1C[C@@H](O)C[C@@H](Cc1ccccc1)C(=O)N[C@H]1c2ccccc2C[C@H]1O [Indinavir]
GFP expression of the PR cell line (flow cytometry): not green when induced by Dox, unless it is also incubated with the PI IDV

— US20180127800A1 (priority 2016, published 2018)
